Tests used:
[1] = molecular target: HER1(ErbB1) (Homo sapiens, UniProt P00533); assay: In vitro enzyme activity, HER1 (radiometric, Eurofins); format: biochemical; details: conclusion
Procedure: (§1) The purpose of this assay is to detect the in vitro inhibitory activity of compounds on HER1(ErbB1), HER2(ErbB2), and HER4(ErbB4). The enzymes used in this assay are human ErbB 1, ErbB2 and ErbB4. Eurofins Pharma Discovery Service provided the method for activity detection. Steps and method of the assay (96-well plate): A buffer solution of the assay compounds in a dilution of 5-fold (5 μL), polypeptide substrate poly(Glu, Tyr) (4:1) (2.5 μL), ErbB (4-20 ng, 2.5 μL), MnCl2 (50 mM, 1.25 μL), dH2O (3.75 μL), and [γ-^33P]ATP (10 μL) were added, and incubated at 30° C. for 10 minutes. The reaction was terminated by adding 3% phosphoric acid. 10 μL of the sample was taken and transferred to Filtermate A. The filter disc was washed 3 times with 75 mM phosphoric acid and once with methanol. The filter disc was transferred to a sealed plastic bag and the scintillation mixture (4 mL) was added. The intensity of the emitted photon was detected by a scintillation luminescence counter. The CPM (times/min) of the enzyme sample was compared with the CPM of the internal control sample. The level of photon intensity reflected the degree of the tyrosine kinase activity.

[2] = molecular target: HER2(ErbB2) (Homo sapiens, UniProt P04626); assay: In vitro enzyme activity, HER2 (radiometric, Eurofins); format: biochemical; details: conclusion
Procedure: as §1

[3] = system: OE21 cell; assay: Inhibition of cell proliferation, Cell-Titer-Glo, OE21; format: cell-based, human; details: conclusion
Excerpt: Purpose of the assay: the inhibitory activity of the assay compounds on cell proliferation was detected. Principle of the assay: the luciferase in a Cell-Titer-Glo reagent produces oxidized luciferin with luciferin, oxygen and ATP as reaction substrates, and releases energy in the form of light. Since the luciferase reaction requires ATP, the total amount of light generated by the reaction is proportional to the total amount of ATP that reflects cell viability. Cell line: NCI-N87 cell line (ATCC-CRL-5822), BT-474 cell line (ATCC-HTB-20), OE21 (ECACC-96062201) Cell culture medium: […] L-[…]×, Gibco#25030-081; penicillin-streptomycin Hyclone# SV30010) Cell Titer-Glo® cell viability assay kit with luminescence (Promega #G7573) 384-well cell culture plate (Greiner # 781090) Compound plate (LABCYTE # LP-0200) CO2 incubator (Thermo#371) Vi-cell cell counter (Beckman Coulter) According to the schematic diagram of the cell seed plate, cells were seeded in a 384- or 96-well plate at a density of 1000 cells per well and 25 μL per well, and 25 μL of PBS was added to the wells near edge of the place where no cells were seeded. (1) The stock solution of the compounds has a concentration of 10 mM, and the compounds were diluted with DMSO to an initial concentration of 4 mM. […] After 10 minutes, the plate was read on PerkinElmer Envision, and the […] reading time was set to 0.2 second.

[4] = system: OE19 cells; assay: CTG assay of OE19 cells; format: cell-based; details: conclusion
Procedure: OE19 cells with saturation of 80%-90% were digested with trypsin, centrifuged, resuspended and counted. The concentration of cells was adjusted to […]. OE19 cells were added to a 96-well cell culture plate to 8000 OE19 cells per well. The cells were cultured in a cell incubator containing 5% CO2 at 37° C. overnight.
The stock solution of the assay compounds was serially 3-fold diluted with DMSO to a total of 10 concentrations. Before the start of the assay, the serially diluted assay compounds were further diluted to 10×compound solutions (the highest concentration of 100 μM containing 1% DMSO) with cell culture medium under sterile conditions. The prepared 10×compound solutions were added to the cell culture plate with 10 μL per well. […]
After 72 hours of cell culture, the 96-well cell culture plate was taken out. […] The cell plate was placed in Envision for reading.
The inhibition rate was calculated according to original data as follows: […]
Non-linear regression analysis was performed using the processed data and GraphPad Prism 6 analysis software to obtain a dose-response curve, and the half-inhibitory concentration (IC50) of the assay compounds on OE19 cells was calculated.

[5] = molecular target: T1, CYP2C9 (Homo sapiens, UniProt P11712); assay: Inhibition of CYP enzyme activity in human liver microsome, CYP2C9; format: in vitro ADME; details: versus Poziotinib
T1 construct: in the assay of CYP enzyme activity in human liver microsome; from tissue; host or cells: human liver microsome
Excerpt: (§2) The results of the compound disclosed herein and the reference compound Poziotinib in the assay of CYP enzyme activity in human liver microsome were shown in the following table (Table 17).

[6] = molecular target: T2, CYP2C19 (Homo sapiens, UniProt P33261); assay: Inhibition of CYP enzyme activity in human liver microsome, CYP2C19; format: in vitro ADME
T2 construct: in the assay of CYP enzyme activity in human liver microsome; from tissue; host or cells: human liver microsome
Excerpt: as §2

[7] = molecular target: T3, CYP3A4 (Homo sapiens, UniProt P08684); assay: Inhibition of CYP enzyme activity in human liver microsome, CYP3A4; format: in vitro ADME
T3 construct: in the assay of CYP enzyme activity in human liver microsome; from tissue; host or cells: human liver microsome
Excerpt: as §2

Sequence of HER2(ErbB2) (P04626 23-1255): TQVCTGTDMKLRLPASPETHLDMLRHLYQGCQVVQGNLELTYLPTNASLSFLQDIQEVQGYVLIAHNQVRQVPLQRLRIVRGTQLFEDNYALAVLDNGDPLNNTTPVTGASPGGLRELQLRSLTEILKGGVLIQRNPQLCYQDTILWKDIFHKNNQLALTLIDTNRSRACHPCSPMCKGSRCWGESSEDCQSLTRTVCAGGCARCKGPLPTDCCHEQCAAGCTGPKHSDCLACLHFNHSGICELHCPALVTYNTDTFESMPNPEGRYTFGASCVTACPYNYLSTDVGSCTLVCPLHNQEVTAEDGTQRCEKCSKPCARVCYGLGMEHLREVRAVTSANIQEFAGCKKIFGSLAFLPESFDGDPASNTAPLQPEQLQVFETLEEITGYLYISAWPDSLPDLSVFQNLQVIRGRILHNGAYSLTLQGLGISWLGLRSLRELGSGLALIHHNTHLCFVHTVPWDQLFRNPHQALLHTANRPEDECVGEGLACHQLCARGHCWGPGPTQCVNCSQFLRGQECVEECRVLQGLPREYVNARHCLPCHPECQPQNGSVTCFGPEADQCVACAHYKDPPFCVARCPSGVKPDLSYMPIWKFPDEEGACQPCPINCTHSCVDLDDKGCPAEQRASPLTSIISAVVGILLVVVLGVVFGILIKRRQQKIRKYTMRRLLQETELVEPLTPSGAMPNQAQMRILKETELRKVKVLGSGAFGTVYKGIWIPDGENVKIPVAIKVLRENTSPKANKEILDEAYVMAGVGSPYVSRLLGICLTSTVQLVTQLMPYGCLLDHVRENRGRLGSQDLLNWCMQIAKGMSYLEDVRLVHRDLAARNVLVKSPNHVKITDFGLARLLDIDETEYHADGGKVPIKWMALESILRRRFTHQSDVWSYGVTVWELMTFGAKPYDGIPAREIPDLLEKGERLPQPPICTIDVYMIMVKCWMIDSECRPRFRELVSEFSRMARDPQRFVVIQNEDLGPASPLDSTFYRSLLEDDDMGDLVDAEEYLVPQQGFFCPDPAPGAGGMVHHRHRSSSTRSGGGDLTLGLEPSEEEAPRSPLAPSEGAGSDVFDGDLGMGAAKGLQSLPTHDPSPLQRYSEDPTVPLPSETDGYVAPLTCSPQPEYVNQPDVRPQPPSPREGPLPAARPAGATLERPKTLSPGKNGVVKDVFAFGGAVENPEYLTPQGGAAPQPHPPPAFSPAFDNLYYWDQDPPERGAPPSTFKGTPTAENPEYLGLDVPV
T3 sequence (P08684 whole entry): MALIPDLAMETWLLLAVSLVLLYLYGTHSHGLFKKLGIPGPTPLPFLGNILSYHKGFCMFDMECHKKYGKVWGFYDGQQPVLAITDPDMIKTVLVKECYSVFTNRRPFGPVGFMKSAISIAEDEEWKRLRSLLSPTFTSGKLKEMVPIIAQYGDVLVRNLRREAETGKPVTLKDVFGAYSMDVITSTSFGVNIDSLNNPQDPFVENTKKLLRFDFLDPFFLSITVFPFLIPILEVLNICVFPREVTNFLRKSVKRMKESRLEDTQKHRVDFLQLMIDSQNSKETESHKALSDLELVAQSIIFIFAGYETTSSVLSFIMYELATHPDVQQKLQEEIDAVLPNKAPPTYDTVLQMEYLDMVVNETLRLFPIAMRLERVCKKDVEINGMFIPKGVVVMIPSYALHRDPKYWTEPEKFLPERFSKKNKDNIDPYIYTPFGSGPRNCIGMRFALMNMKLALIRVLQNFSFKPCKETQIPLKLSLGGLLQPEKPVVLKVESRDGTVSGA
T1 sequence (P11712 whole entry): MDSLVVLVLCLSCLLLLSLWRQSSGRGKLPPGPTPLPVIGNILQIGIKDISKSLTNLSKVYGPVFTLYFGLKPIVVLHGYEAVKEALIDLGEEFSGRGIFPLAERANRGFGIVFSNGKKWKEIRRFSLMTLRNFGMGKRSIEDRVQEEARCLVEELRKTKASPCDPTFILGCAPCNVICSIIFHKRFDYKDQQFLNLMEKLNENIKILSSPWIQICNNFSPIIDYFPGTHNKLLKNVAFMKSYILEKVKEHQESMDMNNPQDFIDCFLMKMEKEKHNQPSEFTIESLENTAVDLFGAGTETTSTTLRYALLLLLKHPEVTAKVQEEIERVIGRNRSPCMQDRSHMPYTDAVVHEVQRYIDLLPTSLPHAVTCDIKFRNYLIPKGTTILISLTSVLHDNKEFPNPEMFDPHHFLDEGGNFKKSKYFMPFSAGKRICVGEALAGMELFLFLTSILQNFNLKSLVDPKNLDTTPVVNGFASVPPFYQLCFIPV
Sequence of HER1(ErbB1) (P00533 25-1210): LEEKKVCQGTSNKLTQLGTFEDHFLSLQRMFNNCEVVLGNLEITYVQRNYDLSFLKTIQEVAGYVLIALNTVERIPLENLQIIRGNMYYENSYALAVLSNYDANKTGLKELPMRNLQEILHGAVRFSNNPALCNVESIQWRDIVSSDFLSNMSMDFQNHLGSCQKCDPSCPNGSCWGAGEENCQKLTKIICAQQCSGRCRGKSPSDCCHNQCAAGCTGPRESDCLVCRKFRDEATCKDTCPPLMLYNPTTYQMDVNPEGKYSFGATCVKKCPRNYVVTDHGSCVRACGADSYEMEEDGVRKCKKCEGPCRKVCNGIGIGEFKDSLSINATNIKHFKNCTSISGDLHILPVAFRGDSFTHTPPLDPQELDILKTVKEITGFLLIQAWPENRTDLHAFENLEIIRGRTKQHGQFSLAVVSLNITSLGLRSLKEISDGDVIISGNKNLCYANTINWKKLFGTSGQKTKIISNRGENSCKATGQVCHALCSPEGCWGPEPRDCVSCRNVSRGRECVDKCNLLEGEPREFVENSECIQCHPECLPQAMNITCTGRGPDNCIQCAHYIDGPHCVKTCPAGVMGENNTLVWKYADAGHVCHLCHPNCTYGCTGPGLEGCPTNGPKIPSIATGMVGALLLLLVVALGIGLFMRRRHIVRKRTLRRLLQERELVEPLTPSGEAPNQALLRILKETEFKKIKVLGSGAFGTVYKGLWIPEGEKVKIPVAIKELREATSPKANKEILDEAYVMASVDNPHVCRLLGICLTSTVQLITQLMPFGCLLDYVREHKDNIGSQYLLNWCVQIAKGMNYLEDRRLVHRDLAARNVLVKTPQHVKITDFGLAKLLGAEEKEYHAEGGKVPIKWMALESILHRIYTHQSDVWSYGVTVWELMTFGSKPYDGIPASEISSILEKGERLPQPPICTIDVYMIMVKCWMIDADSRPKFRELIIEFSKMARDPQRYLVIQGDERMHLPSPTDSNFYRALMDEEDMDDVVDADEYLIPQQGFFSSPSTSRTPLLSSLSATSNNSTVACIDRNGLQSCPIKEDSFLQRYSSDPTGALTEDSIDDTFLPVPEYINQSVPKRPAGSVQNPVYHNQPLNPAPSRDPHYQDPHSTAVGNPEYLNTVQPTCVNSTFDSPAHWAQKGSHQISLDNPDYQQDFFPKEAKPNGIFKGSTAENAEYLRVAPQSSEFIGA
T2 sequence (P33261 whole entry): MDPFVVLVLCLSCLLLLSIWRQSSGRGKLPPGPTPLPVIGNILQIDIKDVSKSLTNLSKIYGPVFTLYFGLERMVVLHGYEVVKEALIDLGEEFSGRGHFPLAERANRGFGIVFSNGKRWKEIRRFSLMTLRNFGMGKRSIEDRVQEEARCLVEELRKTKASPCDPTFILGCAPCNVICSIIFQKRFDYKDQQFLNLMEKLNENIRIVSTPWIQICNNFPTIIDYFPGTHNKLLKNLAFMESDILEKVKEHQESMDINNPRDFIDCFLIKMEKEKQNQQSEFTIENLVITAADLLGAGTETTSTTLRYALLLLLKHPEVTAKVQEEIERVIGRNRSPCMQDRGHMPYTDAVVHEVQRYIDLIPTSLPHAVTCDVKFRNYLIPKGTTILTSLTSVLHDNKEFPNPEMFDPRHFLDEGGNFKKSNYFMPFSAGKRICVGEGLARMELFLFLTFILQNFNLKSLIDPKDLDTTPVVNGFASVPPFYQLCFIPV

## C=CC(=O)N1[C@@H]2CC[C@H]1C[C@H](Nc1cc3c(Nc4ccc(Cl)c(Cl)c4F)ncnc3cc1OC)C2 [Compound of formula (I)]
[1]
  inhibitory activity on HER1 (in words): significant inhibitory activity
[2]
  inhibitory activity on HER2 (in words): significant inhibitory activity
[3]
  inhibitory activity on the proliferation of OE21 cells (in words): significant inhibitory activity
[4]
  inhibitory activity on the proliferation of OE19 cells (in words): significant inhibitory activity
[5]
  activity on CYP2C9, times better than the reference compound: 2 times
[6]
  inhibitory activity on CYP2C19 compared with Poziotinib (in words): comparable to that of the reference compound Poziotinib
[7]
  inhibitory activity on CYP3A4 (in words): no inhibitory activity

— US20220242851A1, “CRYSTAL FORM AND SALT OF QUINAZOLINE COMPOUND AND PREPARATION METHOD THEREOF” (SHENZHEN JINRUI FOUNDATION BIOTECH CO., LTD, priority 2019, published 2022)
